From article PMC6271783 (Molecules, 2014)
“Also recorded” adds a separate entry of the source.

Key:
[1] = assay type: physicochemical; details: pH 7
rat α3β2 nAChRs [2] = biological target: T1, rat α3β2 nAChRs (Rattus norvegicus, UniProt P04757+P12390); test: biochemical
T1 construct: expressed in transfected cells; host or cells: Xenopus laevis oocytes injected with cRNA

[3] = tested on: AChBPs from different species; details: cited from earlier work
rat α3β2 nAChRs [4] = biological target: T1, rat α3β2 nAChRs; assay type: biochemical
α3β2 nAChRs = details: cited from earlier work

T1 sequence (P04757 26-499 limits assumed): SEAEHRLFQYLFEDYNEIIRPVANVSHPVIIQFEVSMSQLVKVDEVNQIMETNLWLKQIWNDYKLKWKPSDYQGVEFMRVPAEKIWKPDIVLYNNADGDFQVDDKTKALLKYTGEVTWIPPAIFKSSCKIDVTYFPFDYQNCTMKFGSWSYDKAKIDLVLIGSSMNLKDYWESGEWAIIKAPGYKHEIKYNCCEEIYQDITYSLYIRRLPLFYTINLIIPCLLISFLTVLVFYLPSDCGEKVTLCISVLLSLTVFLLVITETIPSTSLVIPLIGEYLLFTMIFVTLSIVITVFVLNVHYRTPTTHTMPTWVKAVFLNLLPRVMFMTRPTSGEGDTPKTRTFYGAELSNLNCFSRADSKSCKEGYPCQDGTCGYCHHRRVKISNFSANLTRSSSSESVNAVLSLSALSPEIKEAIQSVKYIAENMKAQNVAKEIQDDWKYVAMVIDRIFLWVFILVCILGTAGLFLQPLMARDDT
T1 sequence (P12390 25-500 limits assumed): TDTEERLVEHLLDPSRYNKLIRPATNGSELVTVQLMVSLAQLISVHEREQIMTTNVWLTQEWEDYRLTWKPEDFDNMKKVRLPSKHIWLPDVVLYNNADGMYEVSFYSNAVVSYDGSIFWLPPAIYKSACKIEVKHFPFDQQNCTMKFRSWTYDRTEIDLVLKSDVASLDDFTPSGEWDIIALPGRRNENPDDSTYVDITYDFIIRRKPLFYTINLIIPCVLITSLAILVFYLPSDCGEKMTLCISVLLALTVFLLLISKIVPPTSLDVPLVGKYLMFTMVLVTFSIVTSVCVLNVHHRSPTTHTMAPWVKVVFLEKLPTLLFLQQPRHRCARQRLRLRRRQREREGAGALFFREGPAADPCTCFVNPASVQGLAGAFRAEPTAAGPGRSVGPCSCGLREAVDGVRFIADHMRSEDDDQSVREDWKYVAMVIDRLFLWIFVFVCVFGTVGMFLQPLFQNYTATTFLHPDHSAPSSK

Structure (SMILES) | CD minimum [1] | CD minimum, second of double minimum [1] | secondary structure by CD [1] | IC50 (rat α3β2 nAChRs [2]) | activity on α3β2 nAChRs (rat α3β2 nAChRs [2]) | fold more potent than ribbon isomer (rat α3β2 nAChRs [2]) | inhibition of ACh-evoked response (rat α3β2 nAChRs [2]) | reversibility of inhibition (rat α3β2 nAChRs [2]) | affinity to AChBPs [3] | relative potency among venom components (rat α3β2 nAChRs [4]) | selectivity (α3β2 nAChRs) | fold less potent than globular isomer (rat α3β2 nAChRs [2]) | inhibition at 0.5 µM (rat α3β2 nAChRs [2]; read-out: inhibition of ACh evoked current amplitude)
CC[C@H](C)[C@@H]1NC(=O)[C@@H]2CSSC[C@H](NC(=O)CN)C(=O)N[C@@H](CSSC[C@@H](C(N)=O)NC(=O)[C@H](CC(C)C)NC(=O)[C@H](CC(=O)O)NC(=O)[C@@H]3CCCN3C(=O)[C@H](CC(N)=O)NC(=O)[C@H](CC(N)=O)NC(=O)[C@H](C)NC1=O)C(=O)N[C@@H](CO)C(=O)N[C@@H](CCCNC(=N)N)C(=O)N1CCC[C@H]1C(=O)N1CCC[C@H]1C(=O)N2 [globular TxIA, α-conotoxin TxIA] | around 208 nm | ~222 nm | contained some α-helical structure | 5.4 nM | most potent isoform; also recorded: strongly inhibited; also recorded: most active form | ~ 80 -fold | almost complete inhibition | reversibly inhibited | high affinity | most potent component; also recorded: highest potency | selectively targeted the α3β2 nAChRs | – | –
CC[C@H](C)[C@@H]1NC(=O)[C@@H]2CSSC[C@H](NC(=O)[C@@H](NC(=O)CN)CSSC[C@@H](C(N)=O)NC(=O)[C@H](CC(C)C)NC(=O)[C@H](CC(=O)O)NC(=O)[C@@H]3CCCN3C(=O)[C@H](CC(N)=O)NC(=O)[C@H](CC(N)=O)NC(=O)[C@H](C)NC1=O)C(=O)N[C@@H](CO)C(=O)N[C@@H](CCCNC(=N)N)C(=O)N1CCC[C@H]1C(=O)N1CCC[C@H]1C(=O)N2 [ribbon TxIA] | – | – | between them | 430 nM | weaker potency | – | – | – | – | – | – | ~ 80 times | ~65%
